In patent US8324202B2, “5-phenyl-1H-benzo [E] [1,4] diazepine compounds substituted with an hydroxamic acid group as histone deacetylase inhibitors” (Universita Degli Studi di Firenze, priority 2007, dated 2012):

Key:
Type in all cases: cell-based, human
acetylated H3 histone = experiment: Histone deacetylase inhibition: western blot for acetylated histone H3 in cells incubated 6 hours with drug; settings: for Acetyl-H3 densitometric value: 6 hours, untreated = 1; for H3 histone acetylating activity, in words: summary in description
Procedure: (§1) The new described compounds were tested for their ability to inhibit the histone deacetylase activity by western blot for the acetylated isoforms of histone H3 and H4 and also to induce growth arrest in cancer cells by activating apoptosis and/or cell differentiation. Initially, biological activities of newly synthesized HDACi were assessed by using the human acute promyelocytic leukemia cell line NB4, as the experimental model. Cells were maintained in RPMI (Bio-Whittaker Europe, Verviers, Belgio) supplemented with 10% of fetal calf serum (FCS, Boehringer Mannheim, Germania) and 2 mM glutamine (Merck, Darmstadt, Germania) at 37° C. in a humidified atmosphere of 5% CO2. Cells were counted in a Burker chamber and cells viability was assessed by the trypan blu exclusion test.
(§2) Cells, obtained as described above, were harvested in sterile plates (Falcon, Becton Dickinson, Franklin Lakes, N.J.) at density of 6×10^5/mL, and incubated for 6 hours with increasing drug concentration of single compounds. Then, the cells were lysated with RIPA buffer (50 mM Tris-HCl pH 7.4, 150 mM NaCl, 1% Nonidet P-40, 1 mM EDTA plus protease inhibitor cocktail (Protease Inhibitor Cocktail Set III, n° cat. 539134, Calbiochem, Merck, Darmstadt, Germany) and sonicated (Labsonic 1510) twice for 15s pulses at 1-2 Watts in ice. Protein concentration of cell extracts was determined according to the bicinchoninic acid colorimetric method (BCA, Pierce, Rockford, USA) by using serum bovine albumin as the standard (BSA, Sigma, Steinheim, Germania). Equal amounts of protein (20-40 μg/20-30 μL/well) were separated on NuPAGE Bis-Tris 12% gel (Novex, Invitrogen, Carlsbad, Calif.) 10% and transferred to nitrocellulose membranes (Pro-Bind, pore diameter=0.45 μm; Amersham Pharmacia). Then membranes, incubated in phosphate buffer saline (PBS) with 6% defatted dry milk as blocking solution to saturate unspecific binding sites, were probed overnight at 4° C. with primary antibodies (1;1000 dilution in PBS) raised against acetylated H4 a H3 histone isoforms (Upstate Technologies, Lake Placid, N.Y., USA). […] The experiment was performed with the compound (II) S form, where R1 and R2 can be independently a methyl group or hydrogen.

NB4 cells [1] = experiment: Granulocytic differentiation, NBT reduction assay, alone or with ATRA; settings: three days
Procedure: The analysis of functional myeloid differentiation induced by compounds of the invention was accomplished by Nitro-Blu tetrazolium (NBT) reduction assay as described below. Cell suspension (approximately 10^5/mL) were incubated in the presence of 0.25 mg/mL NBT and 500 ng of PMA (Phorbol-12-Myristate 13-acetate) (Sigma) at 37° C. for 30 minutes. Granulocyte or monocyte differentiated cell were capable of reducing NBT to dark formazan precipitate (blu positive cells). NBT positive cells were counted on Burker chamber and expressed as percentage of total cell population.
(§3) • Compounds (II) in racemic form and enantiomers S or R. • Compounds (III) in racemic form and enantiomers S or R. • Compounds (II) with R1 and R2=hydrogen were tested for their capability to synergize with ATRA and for their ability to induce granulocyte differentiation in the human promyelocytic cell line NB4. ATRA at the final concentration of 1 μM is usually employed to induce granulocyte differentiation in NB4 cells.
(§4) NB4 cells were incubated for three days in presence of the compounds listed above, alone or in combination with ATRA. Granulocyte differentiation of leukemic cells was determined by (a) Nitro-Blu tetrazolium (NBT) reduction to dark formazan precipitate (blu positive cells) counting NBT positive cells on Burker chamber and (b) cytofluorimetric analysis of CD11b membrane expression (granulocyte marker, see example 32).

NB4 cells [2] = experiment: Cytostatic and apoptotic activity, Annexin-V-FLUOS/propidium iodide flow cytometry, 48 hours; settings: for IC50: Homo sapiens, NB-4, 48 hours, graphic extrapolation of Annexin-V results, viable cells over control, read-out: IC50 (drug concentration reducing cell density or viability by 50%); for apoptotic activity, in words: leukemic cells, summary in description
Procedure: as §1
Cells, were initially harvested at 4×10^5/mL (3 mL/well) cell density 24 well plate and incubated for 48 hours with increasing drug concentration. All compounds were solubilized in DMSO so that the final concentration of vehicle in culture was lower than 0.1%. At the end of treatment cell viability and apoptosis were evaluated by cytofluorimetric analysis using Anexin-V-Fluos staining (Annexin-V-FLUOS Staining Kit, Roche Molecular Biochemicals, Mannheim, Germany).
Necrotic cells, which are also Annexin-V positive, were identified by using Propidium iodide fluorochrome, that is capable of penetrating cell membranes of dying or dead cells and binding DNA.
Briefly, aliquots of cell suspensions (approximately 10^5 cells) washed in buffer PBS, were resuspended in 5 μl of binding buffer containing annexin V-fluorescein isothiocyanate (FITC) and propidium iodide; incubation was carried out for 15 minutes at room temperature, and cells were then analyzed by flow cytometry (FACScan Becton-Dickinson, San Jose, Calif.).
The IC50 values (i.e. the drug concentration necessary to reduce cell density or viability by 50% as compared to untreated control cultures) obtained by graphic extrapolation of the Anexin-V results and expressed as percentage of viable cells over control were reported In Table 2.
Data represent the percentage of viable cells as the function of drug concentration.

NB4 cells [3] = experiment: Granulocytic differentiation, cytofluorimetric analysis of CD11b membrane expression, alone or with ATRA; settings: for % of CD11b+ cells: three days; for effect on CD11b positive cells, in words: alone or in combination with 20 nM ATRA
Procedure: Identification of markers of myeloid maturation was determined by flow cytometry by labelling cells with PE-conjugated antibody and FITC-conjugated antibody to CD11b (granulocyte marker) and CD14 (monocyte marker) respectively (Becton-Dickinson). Cell suspension aliquots (1×10^5 cells) were washed with cell wash buffer (Becton-Dickinson) and incubated with antibodies for 30 minutes in ice. After the incubation cells, resuspended in 0.3 mL of buffer containing Actinomycin D (Becton-Dickinson) to evaluate cell viability, were submitted to the cytofluorimetric analysis (FACScan, Becton-Dickinson). Cells incubated with appropriately labeled isotype controls were used to gate nonspecific fluorescence signal.
as §3, §4

acetylated H4 histone = experiment: Histone deacetylase inhibition: western blot for acetylated histone H4 in cells incubated 6 hours with drug; settings: for Acetyl-H4 densitometric value: 6 hours, untreated = 0; for H4 histone acetylating activity, in words: summary in description
Procedure: as §1, §2

NB4 cells [4] = experiment: Morphologic evaluation of apoptosis, May-Grünwald-Giemsa stained cytosmears; settings: FIG. 1 panel C, magnification ×650
Procedure: Cells were fixed with acid acetic/methanol (⅓, v/v), then 20 μL of fixed cell suspension were placed on glass slide and let dry for 24 h. The cytosmears were stained with May-Grünwald-Giemsa and apoptotic cells were identified according to the typical morphologic parameters such as nuclear fragmentation, reduction of cell volume and apoptotic bodies. Image analyses were obtained by using a Nikon Eclipse 50i microscope equipped with a Nikon Digital Sight DS -5M (Nikon Corporation, Tokyo, Japan).

| Compound | Acetyl-H3 densitometric value (acetylated H3 histone; 0.5 μM) [arbitrary units] | Acetyl-H3 densitometric value (acetylated H3 histone; 1 μM) [arbitrary units] | Acetyl-H3 densitometric value (acetylated H3 histone; 2.5 μM) [arbitrary units] | % of NBT+ cells (NB4 cells [1]; 1.5 μM compound + 20 nM ATRA) [%] | % of NBT+ cells (NB4 cells [1]; 1.5 μM compound alone) | % of NBT+ cells (NB4 cells [1]; 3 μM compound + 20 nM ATRA) [%] | % of NBT+ cells (NB4 cells [1]; 3 μM compound alone) [%] | IC50 (NB4 cells [2]) [µM] | apoptotic activity, in words (NB4 cells [2]) | % of CD11b+ cells (NB4 cells [3]; 1.5 μM compound + 20 nM ATRA) [%] | % of CD11b+ cells (NB4 cells [3]; 1.5 μM compound alone) [%] | % of CD11b+ cells (NB4 cells [3]; 3 μM compound + 20 nM ATRA) [%] | % of CD11b+ cells (NB4 cells [3]; 3 μM compound alone) [%] | effect on CD11b positive cells, in words (NB4 cells [3]) | Acetyl-H4 densitometric value (acetylated H4 histone; 0.5 μM) [arbitrary units] | Acetyl-H4 densitometric value (acetylated H4 histone; 1 μM) [arbitrary units] | Acetyl-H4 densitometric value (acetylated H4 histone; 2.5 μM) [arbitrary units] | H4 histone acetylating activity, in words (acetylated H4 histone) | H3 histone acetylating activity, in words (acetylated H3 histone) | other results |
| --- | --- | --- | --- | --- | --- | --- | --- | --- | --- | --- | --- | --- | --- | --- | --- | --- | --- | --- | --- | --- |
| CN1C(=O)CN=C(c2ccccc2)c2cc(C#CCCCC(=O)NO)ccc21 [Compound (II) R1 and R2 = hydrogen, 6-(1-methyl-2-oxo-5-phenyl-2,3-dihydro-1H-benzo[e][1,4]diazepin-7-yl)-N-hydroxyhex-5-ynamide] | 2.26 | 2.41 | 2.836 | 45 | 2% | 80 | 3 | 4.9 | excellent apoptotic activity | 74.3 | 44 | 94.7 | 69.3 | significant and dose-dependent increase in the amount of CD11b positive cells | 1.3 | 1.8 | 4 | good H4 histone acetylating activity |  |  |
| C[C@@H]1N=C(c2ccccc2)c2cc(C#CCCCC(=O)NO)ccc2N(C)C1=O [Compound (II) S form with R1 or R2 = Me, (S)-6-(1,3-dimethyl-2-oxo-5-phenyl-2,3-dihydro-1H-benzo[e][1,4]diazepin-7-yl)-N-hydroxyhex-5-ynamide] | 2.88 | 3.85 | 5.23 | 41 | ≦1% |  |  | 1.7 |  | 62.3 | 36.3 |  |  |  | 1 | 1.33 | 12.96 | facilitating, in its enantiomerically pure (S) form, H4 histone acetylation | good activity to induce H3 histone acetylation in a dose-dependent way | morphology of treated cells (apoptosis) (NB4 cells [4]): massive nuclear fragmentation suggestive of a typical apoptotic process |
| C[C@H]1N=C(c2ccccc2)c2cc(NC(=O)CCCCCCC(=O)NO)ccc2N(C)C1=O [Compound (III) R form with R1 or R2 = Me, (R)—N1-(1,3-dimethyl-2-oxo-5-phenyl-2,3-dihydro-1H-benzo[e][1,4]diazepin-7-yl)-N8-hydroxyoctanediamide] |  | 4.46 |  |  |  | 70 | 3 | 3.7 | high apoptotic activity |  |  | 80 | 39.3 | augmented the percentage of CD11b positive cells |  | 17.78 |  | excellent H4 histone acetylating activity | good H3 histone acetylating activity | Acetyl-H3 densitometric value (acetylated H3 histone; 2 μM): 6.85 arbitrary units; Acetyl-H3 densitometric value (acetylated H3 histone; 5 μM): 7.27 arbitrary units; Acetyl-H4 densitometric value (acetylated H4 histone; 2 μM): 29.63 arbitrary units; Acetyl-H4 densitometric value (acetylated H4 histone; 5 μM): 34.07 arbitrary units |
